According to patent EP3625243B1, “TAILORED CYCLODEPSIPEPTIDES AS POTENT NON-COVALENT SERINE PROTEASE INHIBITORS” (Universität Duisburg-Essen, priority 2017, dated 2018):
Like-named read-outs stand apart in the source and are kept apart here.

Experiments:
HTRA3 = HTRA3 (Homo sapiens, UniProt P83110); experiment: Chromogenic enzyme activity assay, HTRA3
HTRA2 = biological target: T1, HTRA2 (Homo sapiens, UniProt O43464); experiment: Chromogenic enzyme activity assay, HTRA2
T1 sequence (O43464 134-458): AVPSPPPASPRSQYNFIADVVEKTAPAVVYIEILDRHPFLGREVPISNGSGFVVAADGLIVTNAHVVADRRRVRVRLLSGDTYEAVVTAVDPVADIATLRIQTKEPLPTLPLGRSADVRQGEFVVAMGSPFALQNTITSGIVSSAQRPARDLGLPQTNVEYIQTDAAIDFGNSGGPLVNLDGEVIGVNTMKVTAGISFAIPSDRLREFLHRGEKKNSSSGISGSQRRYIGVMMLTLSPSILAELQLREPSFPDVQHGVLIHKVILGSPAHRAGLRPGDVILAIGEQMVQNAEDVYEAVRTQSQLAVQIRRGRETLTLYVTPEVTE

HTRA1 = HTRA1 (Homo sapiens, UniProt Q92743); experiment: Chromogenic enzyme activity assay, HTRA1
[1] = biological target: T2, human neutrophil elastase (Homo sapiens, UniProt P08246); experiment: Chromogenic enzyme activity assay, elastase; assay type: biochemical
T2 construct: purchased Enzo Life Sciences BML-SE284
T2 sequence (P08246 30-267): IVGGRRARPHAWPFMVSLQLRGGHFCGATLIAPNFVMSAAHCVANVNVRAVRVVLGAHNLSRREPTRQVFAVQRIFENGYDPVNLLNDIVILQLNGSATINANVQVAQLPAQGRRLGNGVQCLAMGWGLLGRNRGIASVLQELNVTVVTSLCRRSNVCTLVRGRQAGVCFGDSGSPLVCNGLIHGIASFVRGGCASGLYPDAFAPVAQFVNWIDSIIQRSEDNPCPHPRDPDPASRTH

[2] = biological target: T3, human pancreas chymotrypsin (Homo sapiens, UniProt P17538); experiment: Chromogenic enzyme activity assay, chymotrypsin; assay type: biochemical; details: Table 2, substrate AAF-pNA, read-out: Ki Chymo- trypsin [a]
T3 construct: purchased Sigma-Aldrich SRP6509-100

bovine pancreas trypsin = biological target: T4, bovine pancreas trypsin (Bos taurus, UniProt P00760); experiment: Chromogenic enzyme activity assay, trypsin; assay type: biochemical; details: Table 2, read-out: Ki Trypsin [c]
T4 construct: purchased Sigma-Aldrich T1426
T4 sequence (P00760 24-246): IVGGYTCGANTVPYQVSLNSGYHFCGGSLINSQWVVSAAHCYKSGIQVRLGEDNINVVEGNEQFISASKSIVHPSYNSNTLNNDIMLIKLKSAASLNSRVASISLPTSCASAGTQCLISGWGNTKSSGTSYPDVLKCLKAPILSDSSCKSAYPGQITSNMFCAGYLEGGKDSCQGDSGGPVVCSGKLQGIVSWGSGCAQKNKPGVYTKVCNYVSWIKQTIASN

[3] = Table 2, substrate AAPV-pNA, read-out: Ki Elastase [b]
[4] = Table 3, read-out: Ki Elastase [b]

T3 sequence (P17538 19-263): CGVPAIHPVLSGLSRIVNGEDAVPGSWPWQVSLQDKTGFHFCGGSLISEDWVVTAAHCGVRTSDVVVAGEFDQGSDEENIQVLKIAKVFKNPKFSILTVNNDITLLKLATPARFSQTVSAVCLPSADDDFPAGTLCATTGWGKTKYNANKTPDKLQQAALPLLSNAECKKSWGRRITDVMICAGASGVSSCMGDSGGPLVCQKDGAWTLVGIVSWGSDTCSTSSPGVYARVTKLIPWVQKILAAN
Sequence of HTRA1 (Q92743 158-480): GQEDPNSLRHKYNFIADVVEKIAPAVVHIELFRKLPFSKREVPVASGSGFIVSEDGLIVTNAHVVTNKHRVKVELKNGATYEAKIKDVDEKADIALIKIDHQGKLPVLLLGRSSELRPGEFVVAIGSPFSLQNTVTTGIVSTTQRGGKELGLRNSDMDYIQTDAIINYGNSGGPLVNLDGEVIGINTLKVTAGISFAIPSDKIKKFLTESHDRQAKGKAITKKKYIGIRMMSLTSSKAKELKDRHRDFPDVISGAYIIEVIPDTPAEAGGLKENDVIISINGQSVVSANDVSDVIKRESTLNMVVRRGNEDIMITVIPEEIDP
Sequence of HTRA3 (P83110 111-436): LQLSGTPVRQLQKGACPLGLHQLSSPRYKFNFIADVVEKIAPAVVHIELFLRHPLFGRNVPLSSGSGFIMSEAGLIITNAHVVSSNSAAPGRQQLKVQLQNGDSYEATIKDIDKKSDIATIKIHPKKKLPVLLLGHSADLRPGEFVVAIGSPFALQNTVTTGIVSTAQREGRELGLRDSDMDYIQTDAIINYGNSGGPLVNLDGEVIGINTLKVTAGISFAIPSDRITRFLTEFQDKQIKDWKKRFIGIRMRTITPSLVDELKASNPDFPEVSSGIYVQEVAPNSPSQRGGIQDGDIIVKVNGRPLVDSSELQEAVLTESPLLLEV

| Compound | Ki (HTRA3) | Ki (HTRA2) | Ki (HTRA1) | Ki [2] | Ki [1, 4] | further results |
| --- | --- | --- | --- | --- | --- | --- |
| CC(C)C[C@H]1C(=O)N(C)[C@@H](C)C(=O)N[C@@H](C(C)C)C(=O)O[C@H](C)[C@H](NC(=O)[C@H](C)NC(=O)[C@H](C)NC(=O)OCc2ccccc2)C(=O)N[C@@H](C(C)C)C(=O)N[C@H]2CC[C@@H](O)N1C2=O [Ahp7] | > 50 µM | 6.9 ± 1.5 µM | > 50 µM | > 50 µM | – | Ki [1, 3]: 0.11 ± 0.02 µM |
| CC(C)C[C@H]1C(=O)N(C)[C@@H](Cc2ccccc2)C(=O)N[C@@H](C(C)C)C(=O)O[C@H](C)[C@H](NC(=O)[C@H](C)NC(=O)[C@H](C)NC(=O)OCc2ccccc2)C(=O)N[C@@H](C2CCCCC2)C(=O)N[C@H]2CC[C@@H](O)N1C2=O [Ahp21] | – | – | – | – | > 50 µM | Ki (HTRA3; read-out: Ki HTRA3 [a], Table 3, human HTRA proteases): > 50 µM; Ki (HTRA2; read-out: Ki HTRA2 [a], Table 3, human HTRA proteases): > 50 µM; Ki (HTRA1; read-out: Ki HTRA1 [a], Table 3, human HTRA proteases): > 50 µM |
| CC(C)C[C@H]1C(=O)N(C)[C@@H](Cc2ccccc2)C(=O)N[C@@H](C(C)C)C(=O)O[C@H](C)[C@H](NC(=O)[C@H](C)NC(=O)[C@H](C)NC(=O)OCc2ccccc2)C(=O)N[C@@H](C(C)C)C(=O)N[C@H]2CC[C@@H](O)N1C2=O [Ahp1] | 3 ± 0.5 µM | 4.1 ± 0.4 µM | 8.2 ± 2.7 µM | > 50 µM | – | Ki [1, 3]: 0.019 ± 0.003 µM |
| CC(C)C[C@H]1C(=O)N(C)[C@@H](Cc2ccccc2)C(=O)N[C@@H](C(C)C)C(=O)O[C@H](C(C)C)[C@H](NC(=O)[C@H](C)NC(=O)[C@H](C)NC(=O)OCc2ccccc2)C(=O)N[C@@H](C(C)C)C(=O)N[C@H]2CC[C@@H](O)N1C2=O [Ahp10] | 0.48 ± 0.07 µM | 0.26 ± 0.03 µM | 2.4 ± 0.6 µM | > 50 µM | – | Ki (HTRA2) (HTRA2; Table 2): sub-µM; Ki [1, 3]: 0.018 ± 0.004 µM |
| CC(C)C[C@H]1C(=O)N(C)[C@@H](Cc2ccccc2)C(=O)N[C@@H](C(C)C)C(=O)O[C@H](c2ccccc2)[C@H](NC(=O)[C@H](C)NC(=O)[C@H](C)NC(=O)OCc2ccccc2)C(=O)N[C@@H](C(C)C)C(=O)N[C@H]2CC[C@@H](O)N1C2=O [Ahp3] | – | – | – | > 50 µM | – | – |
| CC(C)C[C@H]1C(=O)N(C)[C@@H](Cc2ccccc2)C(=O)N[C@@H](Cc2ccccc2)C(=O)O[C@H](C)[C@H](NC(=O)[C@H](C)NC(=O)[C@H](C)NC(=O)OCc2ccccc2)C(=O)N[C@@H](C(C)C)C(=O)N[C@H]2CC[C@@H](O)N1C2=O [Ahp8] | – | – | – | > 50 µM | – | – |
| CC[C@@H]1NC(=O)[C@@H](NC(=O)[C@H](C)NC(=O)[C@H](C)NC(=O)OCc2ccccc2)[C@@H](C)OC(=O)[C@H](C(C)C)NC(=O)[C@H](Cc2ccccc2)N(C)C(=O)[C@H](CC(C)C)N2C(=O)[C@H](CC[C@H]2O)NC1=O [Ahp14] | 1.46 µM | 0.7 µM | 2.97 µM | – | 0.47 µM | – |
| CC(C)[C@@H]1NC(=O)[C@@H](NC(=O)[C@H](C)NC(=O)[C@H](C)NC(=O)OCc2ccccc2)[C@@H](C)OC(=O)[C@H](C(C)C)NC(=O)[C@H](Cc2ccccc2)N(C)C(=O)[C@H](Cc2ccccc2)N2C(=O)[C@H](CC[C@H]2O)NC1=O [Ahp6] | – | – | – | > 50 µM | – | – |
| C#CC[C@@H]1NC(=O)[C@@H](NC(=O)[C@H](C)NC(=O)[C@H](C)NC(=O)OCc2ccccc2)[C@@H](C)OC(=O)[C@H](C(C)C)NC(=O)[C@H](Cc2ccccc2)N(C)C(=O)[C@H](CC(C)C)N2C(=O)[C@H](CC[C@H]2O)NC1=O [Ahp18] | 17.9 µM | – | > 50 µM | – | 0.2 µM | – |
| CC(C)C[C@H]1C(=O)N(C)[C@@H](Cc2ccccc2)C(=O)N[C@@H](C(C)C)C(=O)O[C@H](C)[C@H](NC(=O)[C@H](Cc2ccccc2)NC(=O)[C@H](C)NC(=O)OCc2ccccc2)C(=O)N[C@@H](C(C)C)C(=O)N[C@H]2CC[C@@H](O)N1C2=O [Ahp4] | – | – | – | > 50 µM | – | HTRA2 inhibition potency relative to Ahp1 (HTRA2; compared with Ahp1): more than ten-fold more potent |
| CCC[C@@H]1NC(=O)[C@@H](NC(=O)[C@H](C)NC(=O)[C@H](C)NC(=O)OCc2ccccc2)[C@@H](C)OC(=O)[C@H](C(C)C)NC(=O)[C@H](Cc2ccccc2)N(C)C(=O)[C@H](CC(C)C)N2C(=O)[C@H](CC[C@H]2O)NC1=O [Ahp15] | > 50 µM | 0.69 µM | 7 µM | – | 0.13 µM | – |
| CC(C)C[C@H]1C(=O)N(C)[C@@H](Cc2ccccc2)C(=O)N[C@@H](C(C)C)C(=O)O[C@H](C)[C@H](NC(=O)[C@H](C)NC(=O)[C@H](C)NC(=O)OCc2ccccc2)C(=O)N[C@@H](Cc2ccccc2)C(=O)N[C@H]2CC[C@@H](O)N1C2=O [Ahp2] | > 50 µM | > 50 µM | > 50 µM | – | – | Ki (bovine pancreas trypsin): > 50 µM; Ki [1, 3]: > 50 µM |
| CC(C)C[C@H]1C(=O)N(C)[C@@H](Cc2ccccc2)C(=O)N[C@@H](C(C)C)C(=O)O[C@H](C)[C@H](NC(=O)[C@H](C)NC(=O)[C@H](C)NC(=O)OCc2ccccc2)C(=O)N[C@@H](C)C(=O)N[C@H]2CC[C@@H](O)N1C2=O [Ahp13] | 0.98 µM | 0.26 µM | 4.26 µM | – | 0.026 µM | – |
| CCC(C)[C@@H]1NC(=O)[C@@H](NC(=O)[C@H](C)NC(=O)[C@H](C)NC(=O)OCc2ccccc2)[C@@H](C)OC(=O)[C@H](C(C)C)NC(=O)[C@H](Cc2ccccc2)N(C)C(=O)[C@H](CC(C)C)N2C(=O)[C@H](CC[C@H]2O)NC1=O (some centres unmarked) [Ahp16] | > 50 µM | > 50 µM | > 50 µM | – | 0.5 µM | – |
| C=CC[C@@H]1NC(=O)[C@@H](NC(=O)[C@H](C)NC(=O)[C@H](C)NC(=O)OCc2ccccc2)[C@@H](C)OC(=O)[C@H](C(C)C)NC(=O)[C@H](Cc2ccccc2)N(C)C(=O)[C@H](CC(C)C)N2C(=O)[C@H](CC[C@H]2O)NC1=O [Ahp17] | 0.84 µM | 1.38 µM | > 50 µM | – | 0.16 µM | – |
